Values quoted from earlier work in patent publication US20200101029A1, “METHOD AND SYSTEM FOR PRESERVING COGNITIVE CAPACITY DURING AGING” (priority 2018, published 2020).
Where two headings read alike, the source gives them in different places.

What was measured:
[1] = system: rat model of Alzheimer's disease
[2] = 1 gram per day (500 mg twice daily)
[3] = human cohort study
[4] = system: mice exposed to bleomycin
[5] = murine models
[6] = system: genetically-engineered fly; conditions: spermidine feeding during all their lives

Bifidobacterium
effect on memory deficit [1]: improving memory deficit

O=c1c(O)c(-c2ccc(O)c(O)c2)oc2cc(O)cc(O)c12 [quercetin]
patients with improvement of symptoms of at least 25 percent [2]: more than 67%
tolerability [2]: well tolerated

NCCCCNCCCN [spermidine]
safety and tolerability of supplementation [3]: safe and excellently tolerated
accumulation of damaging protein in the mouse lung ([4]; pre-treatment with spermidine): could reduce or prevent
removal of established scar tissue in the lung ([4]; subsequent dosing, even at higher dose): did not remove it
safety and tolerability of supplementation [5]: safe and excellently tolerated
aging-associated abnormal protein (excess presynaptic vesicles in olfactory neurons) [6]: prevented
fly memory over aging [6]: preserved over aging
